Measurements: US7014858B2, “Use methods of treating acne and telangiectasia” (CollaGenex Pharmaceuticals, Inc., priority 2001, dated 2006)
Where a name gives a salt, the structure may show the parent alone.

What was measured:
[1] = system: acne; settings: sub-antibiotic doses; cited from earlier work
[2] = system: neutrophil chemotaxis induced by bacterial chemotactic factors; settings: oral, total daily dose 1000 mg; cited from earlier work
[3] = Plasma antibiotic threshold levels based on steady-state pharmacokinetics
[4] = system: moderate facial acne; test: Clinical study of doxycycline hyclate 20 mg tablets twice daily in moderate acne: lesion counts; format: in vivo, human; settings: 20 mg tablets twice a day
Procedure: Effects of Doxycycline Hyclate 20 mg (Dermastat) Tablets Administered Twice Daily for the Treatment of Moderate Acne
• Multi-center, randomized double-blind, placebo-controlled; • Sixty patients enrolled (30 doxycycline and 30 placebo); • Six month duration of the study. • Patients received medication twice daily, approximately 12 hours apart (placebo and drug are identical in appearance.) Inclusion Criteria: • Healthy post-pubescent males and females (age ≧18) with moderate facial acne: • Comedones 6 to 200; • Inflammatory lesions 10 to 75 (papules and pustules, less than or equal to 5 nodules); • Females tested negative for pregnancy and were non-lactating; • Females maintained appropriate birth control; • Patients signed an Informed Consent Form; • No Accutane treatment for 6 months prior to baseline. Exclusion Criteria: • Use of hormonal contraception 6 months prior to baseline or during study; • Use of topical acne treatments within 6 weeks of baseline or during study; • Use of systemic antibiotics within 6 weeks of baseline or during study; • Use of investigational drugs within 90 days of baseline; • Use of any acne treatments during study. […]

[5] = cited from earlier work

CN(C)[C@@H]1C(O)=C(C(N)=O)C(=O)[C@@]2(O)C(O)=C3C(=O)c4c(O)cccc4[C@@](C)(O)[C@H]3C[C@@H]12 [tetracycline]
clinical effect on acne [1]: no clinical effect
neutrophil chemotaxis [2]: inhibition
plasma antibiotic threshold level [3]: 0.5 µg/mL

CCO.C[C@H]1c2cccc(O)c2C(O)=C2C(=O)[C@]3(O)C(O)=C(C(N)=O)C(=O)[C@@H](N(C)C)[C@@H]3[C@@H](O)[C@@H]21.C[C@H]1c2cccc(O)c2C(O)=C2C(=O)[C@]3(O)C(O)=C(C(N)=O)C(=O)[C@@H](N(C)C)[C@@H]3[C@@H](O)[C@@H]21.Cl.Cl.O [doxycycline hyclate]
reduction in the number of comedones (in words) [4]: significant reduction

CN(C)[C@@H]1C(O)=C(C(N)=O)C(=O)[C@@]2(O)C(O)=C3C(=O)c4c(O)cccc4[C@@](C)(O)[C@H]3C[C@@H]12 [tetracycline HCl]
peak plasma concentration ([5]; 250 mg every six hours over a twenty-four hour period): approximately 3 μg/ml
serum concentration level ([5]; 500 mg every six hours over a twenty-four hour period): 4000 to 5000 ng/mL

CN(C)c1ccc(O)c2c1C[C@H]1C[C@H]3[C@H](N(C)C)C(O)=C(C(N)=O)C(=O)[C@@]3(O)C(O)=C1C2=O [minocycline HCl]
minocycline serum levels (range) ([5]; single dose of two 100 mg tablets, adult humans, over a period of an hour): 0.74 to 4.45 µg/mL
minocycline serum level (average) ([5]; single dose of two 100 mg tablets, adult humans): 2.24 µg/mL
